# Literature values in patent US7030077B2, “Detergent compositions” (Unilever Home and Personal Care USA, a division of Conopco, …, priority 2002, dated 2006).
# Where two headings read alike, the source gives them in different places.
# [1] = other common materials, by contrast, at 20° C.
"Water Solubility (g/100 g) (highly water-soluble materials, grams of solid to form a saturated solution in 100 g of deionised water at 20° C.)",Structure (SMILES),Water Solubility (g/100 g) [1] [g/100 g]
–,O=BO[O-].[Na+] [Sodium perborate anhydrous],3.7
–,O=P(O)(O)OP(=O)(O)OP(=O)(O)O [Sodium tripolyphosphate anhydrous],15
>100,NC(N)=O [Urea],–
